Test results reported in patent publication US20030180260A1, “Immunotherapy or treating bacterial or viral infection at mucosal surfaces with probiotics, and compositions therefor” (priority 2000, published 2003).
Marks after values point to notes of the source that are not given here.

Assays:
Helicobacter pylori = assay: Metronidazole therapy of H. pylori infection in mice pre-treated with probiotic; type: in vivo; conditions: for H. pylori colonisation: L acidophilus 1×10^9 orally 3 times a week for 2 weeks, Metronidazole 0.08 mg/animal for 1 week; for % eradication: compared with saline-treated control group
Method: H. pylori infected mice (5 per group) were treated with Lactobacillus acidophilus (1×10^9 per animal) by oral feeding 3 times a week for 2 weeks prior to treatment with Metronidazole (0.08 mg/animal) for 1 week.

S typhimurium = assay: Translocation of S typhimurium to spleen in mice fed L fermentum and vaccinated with killed oral Salmonella vaccine; type: in vivo, BALB/c mice; conditions: for S typhimurium in spleen (±SEM): live oral challenge
Method: BALB/c female mice (6-8 weeks old) were fed 10^8 L fermentum VRI012 (obtained from University of New South Wales, School of Microbiology and Immunology Culture Collection, Sydney, Australia) before or co-administered with 10^8 killed S typhimurium vaccine four times over a 2 week period. Two weeks after oral administration, the mice were challenged with live S typhimurium administered by the oral route. After sacrifice, the level of colonisation with S typhimurium in the spleen was determined.

[1] = tested on: Non-typeable Haemophilus influenzae (NTHi); assay: Clearance of NTHi from lungs of rats given a single intraduodenal dose of L. fermentum; type: in vivo, dark agouti (DA) rats
Method: Groups of 6 male, specific pathogen free, dark agouti (DA) rats were given a single dose of PBS or live L. fermentum (2.5×10^10) directly into the duodenal lumen after exposure of the intestine by laparotomy. Twenty-one days later the rats were infected intratracheally with 5×10^8 live Non-typeable Haemophilus influenzae (NTHi). Four hours later the rats were killed by pentobarbitone overdose. The lungs were lavaged with 10 mL PBS to obtain broncho-alveolar lavage fluid (BAL). The lavaged lungs were then homogenised in 10 mL of PBS. Twenty microlitres of ten-fold serial dilutions of BAL and lung homogenate (LH) were plated on chocolate agar plates and incubated in a 10% CO2 incubator at 37° C. overnight. Colonies were counted and the number of live bacteria in the BAL and LH preparations determined. The recovery of live NTHi bacteria, presented as colony forming units (CFU), was as follows: […]

IFN-γ [2] = assay: IFN-γ in saliva and cervical lymph node cells after C. albicans challenge (ELISA); type: in vivo, DBA/2 mice
Method: A further study on responses to Candida albicans infection was conducted in the model described in Example 3.
Candida antigen was prepared from freshly cultured Candida albicans by sonication in a MSE Soniprep. The sonicate was centrifuged for 10 min at 2000 g after which time the supernatant was collected and dialysed against PBS. After protein estimation, the solution was filtered sterilised and stored at −20° C. until needed.
A single cell suspension of cervical lymph node (CLN) cells was prepared by teasing lymph node tissue through a sieve. The cells were collected in RPMI 1640 medium supplemented with 10% foetal calf serum (FCS), washed twice by centrifugation and cultured at 4×10^6 cells per well in the presence of 2.5 μg/mL of Candida antigen in a 24-well plate for 3 days.
The culture supernatants were collected and assayed for IL-4, IL-12 and IFN-γ by ELISA using matched antibody pairs and recombinant cytokines as standards (Pharmingen, San Diego, Calif.). The sensitivity of the cytokine ELISA was […] and the results were expressed in net amounts from which the background was subtracted.
Samples of saliva were obtained according to the procedure described in example 2.

Salmonella typhimurium = assay: Translocation of Salmonella typhimurium to spleen in mice fed L acidophilus (VRI 011) and given killed Salmonella vaccine; type: in vivo, BALB/c mice
Description: Female BALB/c mice 6-8 weeks old were obtained from the Animal Resource Centre, Perth, Wash. Lactobacillus acidophilus strain (VRI 011) and the pathogen Salmonella tyhimurium were obtained from the School of Microbiology and Immunology Type Culture Collection, University of New South Wales.
Mice were given 5 doses of L acidophilus (VRI 011) (1×10^8 cfu per dose) or PBS over a 2 week period after which time mice were immunised intragastrically with a killed oral Salmonella vaccine. Two weeks after immunisation, the mice were sacrificed and the spleens collected for enumeration of L acidophilus and S tyhimurium.

[3] = tested on: H. pylori (Sydney strain 1); assay: Clearance of pre-established H. pylori stomach infection in mice dosed with L. acidophilus; type: in vivo, C57BL/6 mice
Method: Two groups of 5 female C57BL/6 mice were infected with H. pylon (Sydney strain 1) by administration of approx. 10^9 live H. pylori on three consecutive days (days 1, 2 and 3) by gavage. On days 28, 30, 32, 35, 37 and 39 mice were dosed by gavage with live L. acidophilus (5×10^9 in 0.2 mL water) or water (control group).
Twenty-one days later ([…]) mice were killed by pentobarbitone overdose (administered intra-peritoneally) and their stomachs removed. The stomach was dissected into two equal halves and one half was placed in 1 mL of deionised water and homogenised. Serial 10-fold dilutions of stomach homogenate were plated out on chocolate agar plates containing fungizone, vancomycin, bacitracin and nalidixic acid. After incubation for 3 days at 37° C. under microaerophilic conditions, the colonies were counted and the total number of live H. pylori in the original stomach homogenate determined.

IL-4 = IL-4 production by OVA-stimulated spleen lymphocytes of mice fed L. acidophilus (ELISA); type: in vivo, C57/BI6 mice; conditions: fed intragastrically, OVA-sensitised; spleen lymphocytes stimulated with OVA 5 μg/mL for 4 days; FIG. 1A
Method: (§1) To determine whether probiotic bacteria down-regulate Th2 and up-regulate Th1 cytokine response, C57/BI6 mice were fed intragastrically using a feeding needle, various numbers of Lactobacillus acidophilus (obtained from University of New South Wales, School of Microbiology and Immunology Culture Collection, Sydney, Australia) on consecutive days for 2 weeks after which they were sensitised with 8 μg of ovalbumin (OVA) and aluminium hydroxide in 0.2 mL phosphate-buffered saline administered by peritoneal injection. The mice were further fed ten times with L. acidophilus every two days for two weeks before they were sacrificed. Lymphocytes were isolated by teasing spleens through a sieve, washed with PBS, and resuspended at 10×10^6 One mL aliquots of the cell suspension were dispensed into wells of a 24-well flat-bottomed microtitre plate and stimulated with OVA (5 μg/mL). After incubation for 4 days the supernatants were collected and assayed for IL-4 and IFN-γ production by standard ELISA techniques using IL-4 or IFN-γ monoclonal antibody pairs. Briefly, wells of a 24-well microtitre plate were coated with a capture anti-IL-4 antibody. […] The colour development was read at 450/620 nm in an ELISA plate reader. The level of IL-4 in unknown samples was quantitated by interpolation using a standard curve. […]

NO = assay: Nitric oxide (NO) secretion in saliva after Candida albicans challenge (Griess reaction); type: in vivo, DBA/2 mice; conditions: oral 5×10^9 CFU, FIG. 2
Method: DBA/2 mice (n=3 to 5 per group) were fed Lactobacillus acidophilus and then challenged with Candida albicans as described in Example 3 below. At various times following oral infusion, saliva was collected after injection with pilocarpine to stimulate saliva flow. The concentration of NO in saliva was determined by the Griess reaction according to the method by Gree et al (1982) Anal. Biochem 126:131-138. DBA/2 mice […] male mice (n=3-5 per group) were fed intragastrically every 2 days for 2 weeks with 5×10^9 L. acidophilus in 0.2 mL PBS. One day after the last feed mice were challenged with 10^8 Candida albicans blastospores by swabbing the oral cavity using a fine-tip sterile swab. At various days after infection the number of C. albicans in the oral mucosa was determined. The oral cavity (cheek, tongue and soft palate) was completely swabbed using a fine-tipped cotton swab. The cotton swab was placed in 1 mL PBS and the yeast cells were resuspended by mixing in a vortex mixer before culture of serial 10-fold dilutions on Sabourand dextrose agar supplemented with chloramphenicol at 37° C. The results were expressed as CFU/mL (FIG. 5)

IFN-γ [4] = assay: IFN-γ production by OVA-stimulated spleen lymphocytes of mice fed L. acidophilus (ELISA); type: in vivo, C57/BI6 mice; conditions: fed intragastrically, OVA-sensitised; spleen lymphocytes stimulated with OVA 5 μg/mL for 4 days; FIG. 1B
Method: as §1

H influenzae = assay: Clearance of non-typable H influenzae from the lungs of rats fed L acidophilus; type: in vivo, DA rats
Method: DA rats (200-250 gm, 8-10 weeks old, Animal Resource Centre, Perth, Wash.) were fed intragastrically L acidophilus in 0.75 mL PBS (2.5×10^10 per rat) or PBS alone every 2 days for 7 days at which time the rats were immuniised with formalin-killed H influenzae ([…]) administered intralumenally (see groups below). Rats continued to be fed every 2 days for 2 weeks and then boosted with 50 μL of formalin killed H influenzae (5×10^8 per rat) administered by the intratracheal route. After further feeding with L acidophilus for a further 7 days, the rats were challenged with 50 μL of live 5×10^8 H influenzae in the lung.
Immunisation Groups (5 Rats/Group):
2H influenzae (intralumenal)+H influenzae (intra-tracheal boost)
3 PBS (intralumenal)+L. acidophilus fed every 2 days
4H influenzae (intralumenal)+H influenzae (intratracheal boost)+L. acidophilus fed every 2 days
After 4 hrs post challenge, the rats were sacrificed and the levels of colonisation in the lung was examined in bronchial lavage (BAL) and lung homogenate (LH). The level of clearance was determined by a plating serial 10-fold dilutions of the lavage fluid or lung homogenate onto chocolate agar plates. The results were expressed as number of colony forming units (CFU.

Candida albicans = assay: Resistance to oral C. albicans infection following feeding with probiotic bacteria; type: in vivo, DBA/2 mice; conditions: 5×10^9 intragastrically every 2 days for 2 weeks
Method: DBA/2 mice H2d male mice (n=3-5 per group) were fed intragastrically every 2 days for 2 weeks with 5×10^9 L. acidophilus in 0.2 mL PBS. One day after the last feed mice were challenged with 10^8 Candida albicans blastospores by swabbing the oral cavity using a fine-tip sterile swab. At various days after infection the number of C. albicans in the oral mucosa was determined. The oral cavity (cheek, tongue and soft palate) was completely swabbed using a fine-tipped cotton swab. The cotton swab was placed in 1 mL PBS and the yeast cells were resuspended by mixing in a vortex mixer before culture of serial 10-fold dilutions on Sabourand dextrose agar supplemented with chloramphenicol at 37° C. The results were expressed as CFU/mL (FIG. 5)

C albicans = assay: Clearance of C. albicans in mice treated with NO synthase inhibitor; type: in vivo; conditions: ip daily for 3 days after infection; two mouse strains (H2d); FIG. 9
Method: To identify the immune parameters of protection, the levels of IFN-γ were determined at various times following infection with C. albicans. […] Since nitric oxide production is associated with host defence in parasitic infection, quantitation of NO was performed following infection in two mouse strains sharing the same H2d MHC haplotype. In this experiment mice were infected with C albicans and then followed by ip injection with an inhibitor of NO synthase, by injecting NG-monomethyl-L-arginine monoacetate (MNLA) daily for 3 days after which time the clearance rate of yeasts was determined.

Compound: Cc1ncc([N+](=O)[O-])n1CCO [Metronidazole, reference compound]
- H. pylori colonisation (Helicobacter pylori): 11.4 ± 2.5 ×10^5 CFU/animal
- % eradication (Helicobacter pylori): 55^b %
- % eradication (Helicobacter pylori; listed as metronidazole): 55%

Compound: Lactobacillus fermentum [L. fermentum]
- S typhimurium in spleen (±SEM) (S typhimurium; 10^8 co-administered with 10^8 killed S typhimurium vaccine): 4.5 ± 0.22 p < 0.05 vs Control Log CFU/g wet wt
- S typhimurium in spleen (±SEM) (S typhimurium; 10^8 fed before 10^8 killed S typhimurium vaccine): 3.8 ± 0.12 p < 0.05 vs Control Log CFU/g wet wt
- level of translocation compared with mice fed PBS (S typhimurium; fed prior to immunisation or co-administered with killed S typhimurium): low levels of translocation
- LH, live NTHi recovered ([1]; lung homogenate, CFU, single dose 2.5×10^10 into duodenal lumen, challenge day 21, 4 hours): 0.82 ± 0.37 p = 0.017* 10^6
- BAL CFU, live NTHi recovered ([1]; single dose 2.5×10^10 into duodenal lumen, challenge day 21, 4 hours): 0.49 ± 0.19 CFU (10^6)
- clearance of acute NTHi respiratory infection ([1]; single dose delivered to the gut): enhanced clearance

Compound: Lactobacillus acidophilus [L. acidophilus]
- onset of IFN-γ response after C. albicans challenge (IFN-γ [2]; fed mice challenged with C. albicans, controls no detectable IFN-γ until day 6): early response (day 2)
- IFN-γ response in uninfected mice (IFN-γ [2]; fed mice, no C. albicans challenge, FIGS. 6 and 7): no IFN-γ response
- duration of IFN-γ response after C. albicans challenge versus controls not fed (IFN-γ [2]; still seen in nodes at day 15 and in saliva at day 8): more sustained IFN-γ response
- protection against translocation of S typhimurium compared with mice fed PBS (Salmonella typhimurium; fed before or simultaneously with killed oral S typhimurium vaccine, live oral challenge): better protection against translocation
- effect of feeding on the vaccine-induced decrease of translocation (Salmonella typhimurium; feeding in addition to killed oral vaccine): further enhanced
- Number of H. pylori in stomach homogenate ([3]; 5×10^9 by gavage on days 28-39 after infection, killed day 50): 105 ± 14 10^4 CFU
- level of H. pylori infection of the stomach versus control mice ([3]; therapeutic dosing on pre-established infection): lower level of H. pylori infection
- IL-4 production (IL-4): suppression of IL-4 production in dose-dependent manner
- secretion of NO into saliva, early after challenge (NO; early after C. albicans challenge): increased
- secretion of NO into saliva, later stage (NO; later stage after C. albicans challenge): significantly reduced
- production of IFN-γ (IFN-γ [4]): enhanced
- BAL H influenzae (H influenzae; bronchial lavage, 4 hrs post challenge with 5×10^8 live H influenzae): 0.7 ± 0.3 CFU/mL × 10^8
- LH H influenzae (H influenzae; lung homogenate, 4 hrs post challenge with 5×10^8 live H influenzae): 12.5 ± 5.7 CFU/mL × 10^6
- resistance to H influenzae infection in the lungs (H influenzae; rats fed L acidophilus and immunised with killed H influenzae): more resistance to infection
- resistance to infection, repeated oral doses versus single bolus (H influenzae; repeated oral feeding compared with a single bolus): more resistant to infection than rats given a single bolus
- resistance to C. albicans infection (oral mucosa CFU) compared to mice fed PBS (Candida albicans; all time points, FIG. 5): more resistant to infection at all time points
- clearance of yeasts from oral cavity by day 6 (Candida albicans; day 6): almost completely cleared
- H. pylori colonisation (Helicobacter pylori): 10.5 ± 1.4 ×10^5 CFU/animal
- % eradication (Helicobacter pylori): 58^a %
- % eradication (Helicobacter pylori; listed as probiotic): 58%

Compound: CC(=O)O.CNC(=N)NCCC[C@H](N)C(=O)O [MNLA, NG-monomethyl-L-arginine monoacetate]
- clearance of yeasts compared with untreated mice (C albicans): delayed clearance of yeasts
